pEC50: −log10 of the molar value.
Experiments:
PPAR-γ receptor [1] = target: T1, PPAR-γ receptor (Homo sapiens, UniProt P37231); assay: cell-based
T1 sequence (P37231 238-505 limits assumed): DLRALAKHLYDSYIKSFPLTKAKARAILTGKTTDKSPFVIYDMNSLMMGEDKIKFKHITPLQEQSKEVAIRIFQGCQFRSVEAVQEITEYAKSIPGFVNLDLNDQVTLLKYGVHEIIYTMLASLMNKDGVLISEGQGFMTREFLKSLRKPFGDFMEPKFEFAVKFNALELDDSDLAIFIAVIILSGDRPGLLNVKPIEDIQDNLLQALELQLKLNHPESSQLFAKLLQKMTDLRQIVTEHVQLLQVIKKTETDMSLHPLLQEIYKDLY
Excerpt: FIG. 14: Activity of a number of compounds of the invention at the PPAR-γ receptor in cell based system (GeneBlazer) versus rosglitazone control.

PPAR-γ receptor [2] = target: T2, PPAR-γ receptor (Homo sapiens, UniProt P37231); assay: biochemical; format: biochemical
T2 sequence (P37231 1-505): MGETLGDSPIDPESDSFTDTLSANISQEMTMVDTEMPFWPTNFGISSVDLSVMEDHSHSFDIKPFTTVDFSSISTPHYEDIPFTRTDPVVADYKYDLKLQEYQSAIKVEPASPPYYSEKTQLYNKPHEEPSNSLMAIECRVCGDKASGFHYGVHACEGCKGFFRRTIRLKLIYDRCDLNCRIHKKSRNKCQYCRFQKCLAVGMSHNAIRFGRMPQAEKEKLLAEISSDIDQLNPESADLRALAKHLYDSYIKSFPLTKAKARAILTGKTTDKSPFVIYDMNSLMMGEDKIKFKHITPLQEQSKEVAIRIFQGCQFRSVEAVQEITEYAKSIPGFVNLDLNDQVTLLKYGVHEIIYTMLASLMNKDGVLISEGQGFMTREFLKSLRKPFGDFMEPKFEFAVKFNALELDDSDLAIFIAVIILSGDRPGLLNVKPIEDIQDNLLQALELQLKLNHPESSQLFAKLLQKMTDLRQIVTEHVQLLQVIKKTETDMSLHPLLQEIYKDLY

**Q.** How did the pEC50 (PPAR-γ receptor [1]) turn out when `Cc1c(C(=O)c2cccc3ccccc23)c2ccccc2n1CCNc1ccc(C(=O)O)c(O)c1` [DWIN1 (IX), 2-Hydroxy-4-{2-[2-methyl-3-(naphthalene-1-carbonyl)-indol-yl]-ethylamino}-benzoic acid] was run?
**A.** Its pEC50 is 6.10.

**Q.** And the pEC50 (PPAR-γ receptor [2])?
**A.** Its pEC50 is 6.31.

**Q.** With `Cc1c(C(=O)c2cccc3ccccc23)c2ccccc2n1CCNc1ccc(O)c(C(=O)O)c1` [DWIN2 (X), 2-Hydroxy-5-{2-[2-methyl-3-(naphthalene-1-carbonyl)-indol-1-yl]-ethylamino}-benzoic acid] as the compound, how does the pEC50 (PPAR-γ receptor [1]) read?
**A.** Its pEC50 is 5.98.

**Q.** What about the pEC50 (PPAR-γ receptor [2]) of the same compound?
**A.** Its pEC50 is 6.45.

**Q.** With `Cc1c(CCNc2ccc(C(=O)O)c(O)c2)c2ccccc2n1C(=O)c1cccc(Cl)c1Cl` [DWIN8 (XII), 4-{2-[1-(2,3-Dichloro-benzoyl)-2-methyl-1H-indol-3-yl]-ethylamino}-2-hydroxy-benzoic acid] as the compound, how does the “activity in initial dose-response curves” value (PPAR-γ receptor [2]; initial dose-response curves, statement follows the PPAR-γ cell free table) read?
**A.** Its value is “not active”.

Reference: US20110039808A1, “Multitarget Compounds Active at a PPAR and Cannabinoid Receptor” (priority 2007, published 2011)
